Experiments:
Type in all cases: cell-based
[1] = tested on: Aspergillus niger ATCC®16404™; assay: MIC determination, broth microdilution, GOX+LPO with potentiator candidate; conditions: A. niger
Method: (§1) The minimum inhibitory concentration (MIC) is defined as the lowest concentration of an antimicrobial agent that results in a complete inhibition of microbial growth (determined via visual evaluation or absorbance measurements) after overnight incubation. This endpoint measurement is used to define the microbial susceptibility towards an antimicrobial agent. Here, the antimicrobial agent is a combination of the natural enzymes GOX+LPO.
(§2) To determine the MIC of the described combinations, a classical broth microdilution assay was used to determine the susceptibility of a series of microbes commonly detected in infected wounds, including (a) the Gram-positive bacterium Staphylococcus aureus ATCC® 6538™ (results shown below), (b) the Gram-negative bacterium Pseudomonas aeruginosa ATCC®9027™ (results shown below), (c) the yeast Candida albicans ATCC®10231™ (results shown below), and (d) the fungus Aspergillus niger ATCC®16404™ (results shown below). In brief, a […] serial dilution of the enzymatic GOX+LPO solution was prepared in a transparent, flat-bottomed 96-well test plate with final concentrations ranging from 0.005 to 0.00000977% (v/v). To each well, a fixed volume of the enzymatic substrate containing 3,3% (w/v) glucose and 0,084% (w/v) potassium iodide, as well as the microbial inoculum with an OD600 of 0.1 was added. In the event the enzyme combination was evaluated in the presence of a potentiator candidate, the latter was added together with the enzymatic substrate in a final concentration ranging from 100 to 0,00125% (v/v). For each combination evaluated, a blank (no addition of microbial inoculum) was included. Positive (inoculum only) and negative (background solution only) were included to evaluate the performance of the test and to select the enzymatic GOX+LPO concentration at which no microbial growth is detected (i.e., absorbance equal to that of the background solution only). Then, the 96-well test plate was incubated for 24 hours at 37° C. (S. aureus, P. aeruginosa and C. albicans) or 25° C. (A. niger). After incubation, the absorbance of each well was measured using a plate spectrophotometer (Spectramax ID3, Molecular Devices). For each combination evaluated, this test was repeated at least 5 times. The collected data were further analyzed in MS Excel. Mean absorbance data were visualized in a table format in which the MIC was highlighted.

[2] = tested on: Pseudomonas aeruginosa ATCC®9027™; assay: as above; conditions: P. aeruginosa
Method: as §1, §2

[3] = tested on: Staphylococcus aureus ATCC® 6538™; assay: as above; conditions: S. aureus
Method: as §1, §2

[4] = tested on: Aspergillus niger ATCC®16404™; assay: MBC determination, broth microdilution with CFU enumeration; conditions: A. niger
Method: (§3) The minimal bactericidal concentration (MBC) is defined as the lowest concentration of an antimicrobial agent that results in a complete killing of the microbial population (determined via standard CFU enumeration techniques) after overnight incubation. This endpoint measurement is used, together with the MIC (see above), to define the microbial susceptibility towards an antimicrobial agent. Here, the antimicrobial agent is a combination of the natural enzymes GOX+LPO.
(§4) To determine the MBC of the described combinations, a classical broth microdilution assay combined with standard CFU enumeration techniques was used to determine the susceptibility of a series of microbes commonly detected in infected wounds, including (a) the Gram-positive bacterium Staphylococcus aureus ATCC® 6538™ (results shown below), (b) the Gram-negative bacterium Pseudomonas aeruginosa ATCC®9027™ (results shown below), (c) the yeast Candida albicans ATCC®10231™ (results shown below), and (d) the fungus Aspergillus niger ATCC®16404™ (results shown below). In brief, the broth microdilution assay was set up as previously described (see 2.1). After incubation, the MBC was determined by investigating the presence of viable microorganisms at the MIC and following higher concentrations (MICx2, MICx4, and so on) using standard CFU enumeration techniques. For each combination evaluated, this test was repeated at least 5 times. The collected data were further analyzed in MS Excel. Mean concentration data (expressed as log CFU/ml) were visualized in a table format in which the MBC was highlighted.

[5] = tested on: Pseudomonas aeruginosa ATCC®9027™; assay: as above; conditions: P. aeruginosa
Method: as §3, §4

[6] = tested on: Staphylococcus aureus ATCC® 6538™; assay: Absolute microbial counts in function of enzyme solution concentration; conditions: 0.005%-0.0000391% (v/v) GOX+LPO
Source text: Absolute microbial counts in function of concentration of the antimicrobial agent tested are useful to monitor the bactericidal and fungicidal efficacy of that agent.
To determine the absolute number of live microorganisms in function of different enzyme solution concentrations tested, a classical broth microdilution assay combined with standard CFU enumeration techniques was used to determine the susceptibility of a series of microbes commonly detected in infected wounds, including (a) the Gram-positive bacterium Staphylococcus aureus ATCC® 6538™ (results shown below), (b) the Gram-negative bacterium Pseudomonas aeruginosa ATCC®9027™ (results shown below), (c) the yeast Candida albicans ATCC®10231™ (results shown below), and (d) the fungus Aspergillus niger ATCC®16404™ (results shown below). In brief, the broth microdilution assay was set up as previously described (see 2.1). After incubation, the absolute microbial count at the MIC and following higher concentrations (MICx2, MICx4, and so on) was determined using standard CFU enumeration techniques. For each combination evaluated, this test was repeated at least 5 times. The collected data were further analyzed in MS Excel and expressed as log CFU/ml. Mean results were plotted in function of enzyme solution concentration.

SMILES	MIC: GOX+LPO enzyme solution needed to completely inhibit growth ([2]; enhancer 0,1%)	increase in MIC compared to reference ([2]; enhancer 0,1%) [×]	MIC: GOX+LPO enzyme solution needed to completely inhibit growth ([2]; enhancer 1%)	increase in MIC compared to reference ([2]; enhancer 1%) [×]	MBC: GOX+LPO enzyme solution needed ([5]; enhancer 0,1%)	increase in MBC compared to reference ([5]; enhancer 0,1%) [×]	MBC: GOX+LPO enzyme solution needed ([5]; enhancer 1%)	increase in MBC compared to reference ([5]; enhancer 1%) [×]	MIC: GOX+LPO enzyme solution needed to completely inhibit growth ([1]; enhancer 1%-0.01%)	increase in MIC compared to reference ([1]; enhancer 1%-0.01%) [×]	MIC: GOX+LPO enzyme solution needed to completely inhibit growth ([3]; enhancer 0.01%)	increase in MIC compared to reference or guaiacol solution ([3]; enhancer 0.01%) [×]	MBC: GOX+LPO enzyme solution needed ([4]; enhancer 1%-0.01%)	increase in MBC compared to reference ([4]; enhancer 1%-0.01%) [×]	MIC: GOX+LPO enzyme solution needed to completely inhibit growth ([2]; enhancer 0.0025-0.00125%)	increase in MIC compared to reference or guaiacol solution ([2]; enhancer 0.0025-0.00125%) [×]	MIC: GOX+LPO enzyme solution needed to completely inhibit growth ([2]; enhancer 0.01-0.005%)	increase in MIC compared to reference or guaiacol solution ([2]; enhancer 0.01-0.005%) [×]	MIC: GOX+LPO enzyme solution needed to completely inhibit growth ([3]; enhancer 0.0025% to 0.00125%)	increase in MIC compared to reference or guaiacol solution ([3]; enhancer 0.0025% to 0.00125%) [×]	other results
NC(=O)C[C@H](N)C(=O)O [Asparagine, asparagine]	0.000625 % (v/v)	2	0.000156 % (v/v)	8	0.000625 % (v/v)	2	0.000156 % (v/v)	8	–	–	–	–	–	–	–	–	–	–	–	–	MIC: GOX+LPO enzyme solution needed to completely inhibit growth ([1]; enhancer 1%-0.05%): 0.000156 % (v/v); increase in MIC compared to reference ([1]; enhancer 1%-0.05%): 2 ×; MIC: GOX+LPO enzyme solution needed to completely inhibit growth ([3]; enhancer 0.5% to 0.01%): 0.0000391 % (v/v); increase in MIC compared to reference or guaiacol solution ([3]; enhancer 0.5% to 0.01%): 2 ×; MBC: GOX+LPO enzyme solution needed ([4]; enhancer 1%-0.05%): 0.000156 % (v/v); increase in MBC compared to reference ([4]; enhancer 1%-0.05%): 2 ×
N[C@@H](CO)C(=O)O [Serine, serine]	–	–	–	–	–	–	–	–	0.000156 % (v/v)	2	–	–	0.000156 % (v/v)	2	0.000625 % (v/v)	2	0.000625 % (v/v)	2	0.0000391 % (v/v)	2	MIC: GOX+LPO enzyme solution needed to completely inhibit growth ([3]; enhancer 0.01% to 0.005%): 0.0000391 % (v/v); increase in MIC compared to reference or guaiacol solution ([3]; enhancer 0.01% to 0.005%): 2 ×; MIC: GOX+LPO enzyme solution needed to completely inhibit growth ([3]; enhancer 10%): ≤ 0.0000977 % (v/v); increase in MIC compared to reference or guaiacol solution ([3]; enhancer 10%): ≥ 6 ×; MBC: GOX+LPO enzyme solution needed ([5]; enhancer 0.0025-0.00125%): 0.000625 % (v/v); increase in MBC compared to reference or guaiacol solution ([5]; enhancer 0.0025-0.00125%): 2 ×; MBC: GOX+LPO enzyme solution needed ([5]; enhancer 0.01-0.005%): 0.000625 % (v/v); increase in MBC compared to reference or guaiacol solution ([5]; enhancer 0.01-0.005%): 2 ×; reduction in absolute S. aureus counts compared to reference and guaiacol solution ([6]; enhancer 0.0025-0.00125%): stronger reduction; reduction in absolute S. aureus counts compared to reference and guaiacol solution ([6]; enhancer 10-0.005%): stronger reduction
NC(=O)CC[C@H](N)C(=O)O [Glutamine, glutamine]	0.000625 % (v/v)	2	0.000156 % (v/v)	8	0.000625 % (v/v)	2	0.000156 % (v/v)	8	0.000156 % (v/v)	2	–	–	0.000156 % (v/v)	2	–	–	–	–	–	–	MIC: GOX+LPO enzyme solution needed to completely inhibit growth ([3]; enhancer 1% to 0.01%): 0.0000391 % (v/v); increase in MIC compared to reference or guaiacol solution ([3]; enhancer 1% to 0.01%): 2 ×; reduction in absolute S. aureus counts compared to reference and guaiacol solution ([6]; enhancer 0.1%): stronger reduction
O=C(O)[C@@H]1CCCN1 [Proline, proline]	–	–	–	–	–	–	–	–	0.000156 % (v/v)	2	0.0000195 % (v/v)	4	0.000156 % (v/v)	2	0.000625 % (v/v)	2	0.000625 % (v/v)	2	–	–	MIC: GOX+LPO enzyme solution needed to completely inhibit growth ([3]; enhancer 10%): 0.0000391 % (v/v); increase in MIC compared to reference or guaiacol solution ([3]; enhancer 10%): 2 ×; MBC: GOX+LPO enzyme solution needed ([5]; enhancer 0.0025-0.00125%): 0.000625 % (v/v); increase in MBC compared to reference or guaiacol solution ([5]; enhancer 0.0025-0.00125%): 2 ×; MBC: GOX+LPO enzyme solution needed ([5]; enhancer 0.01-0.005%): 0.000625 % (v/v); increase in MBC compared to reference or guaiacol solution ([5]; enhancer 0.01-0.005%): 2 ×

Further lines, with some results ahead:

MIC: GOX+LPO enzyme solution needed to completely inhibit growth ([2]; enhancer 0,1%)	increase in MIC compared to reference ([2]; enhancer 0,1%) [×]	MIC: GOX+LPO enzyme solution needed to completely inhibit growth ([2]; enhancer 1%)	increase in MIC compared to reference ([2]; enhancer 1%) [×]	SMILES	MBC: GOX+LPO enzyme solution needed ([5]; enhancer 0,1%)	increase in MBC compared to reference ([5]; enhancer 0,1%) [×]	MBC: GOX+LPO enzyme solution needed ([5]; enhancer 1%)	increase in MBC compared to reference ([5]; enhancer 1%) [×]	MIC: GOX+LPO enzyme solution needed to completely inhibit growth ([1]; enhancer 1%-0.01%)	increase in MIC compared to reference ([1]; enhancer 1%-0.01%) [×]	MIC: GOX+LPO enzyme solution needed to completely inhibit growth ([3]; enhancer 0.01%)	increase in MIC compared to reference or guaiacol solution ([3]; enhancer 0.01%) [×]	MBC: GOX+LPO enzyme solution needed ([4]; enhancer 1%-0.01%)	increase in MBC compared to reference ([4]; enhancer 1%-0.01%) [×]	MIC: GOX+LPO enzyme solution needed to completely inhibit growth ([2]; enhancer 0.0025-0.00125%)	increase in MIC compared to reference or guaiacol solution ([2]; enhancer 0.0025-0.00125%) [×]	MIC: GOX+LPO enzyme solution needed to completely inhibit growth ([2]; enhancer 0.01-0.005%)	increase in MIC compared to reference or guaiacol solution ([2]; enhancer 0.01-0.005%) [×]	MIC: GOX+LPO enzyme solution needed to completely inhibit growth ([3]; enhancer 0.0025% to 0.00125%)	increase in MIC compared to reference or guaiacol solution ([3]; enhancer 0.0025% to 0.00125%) [×]	other results
0.000625 % (v/v)	2	0.000156 % (v/v)	8	C[C@@H](O)[C@H](N)C(=O)O [Threonine, threonine]	0.000625 % (v/v)	2	0.000156 % (v/v)	8	0.000156 % (v/v)	2	0.0000391 % (v/v)	2	0.000156 % (v/v)	2	–	–	–	–	–	–	MIC: GOX+LPO enzyme solution needed to completely inhibit growth ([3]; enhancer 2%): 0.0000195 % (v/v); increase in MIC compared to reference or guaiacol solution ([3]; enhancer 2%): 4 ×
0.000625 % (v/v)	2	0.000156 % (v/v)	8	CC[C@H](C)[C@H](N)C(=O)O [Isoleucine, isoleucine]	0.000625 % (v/v)	2	0.000156 % (v/v)	8	–	–	–	–	–	–	–	–	–	–	0.0000391 % (v/v)	2	MIC: GOX+LPO enzyme solution needed to completely inhibit growth ([1]; enhancer 1%-0.005%): 0.000156 % (v/v); increase in MIC compared to reference ([1]; enhancer 1%-0.005%): 2 ×; MIC: GOX+LPO enzyme solution needed to completely inhibit growth ([3]; enhancer 0.5% to 0.005%): 0.0000391 % (v/v); increase in MIC compared to reference or guaiacol solution ([3]; enhancer 0.5% to 0.005%): 2 ×; MBC: GOX+LPO enzyme solution needed ([4]; enhancer 1%-0.005%): 0.000156 % (v/v); increase in MIC compared to reference (MBC section) ([4]; enhancer 1%-0.005%): 2 ×; reduction in absolute S. aureus counts compared to reference and guaiacol solution ([6]; enhancer 0.00125%): stronger reduction; reduction in absolute S. aureus counts compared to reference and guaiacol solution ([6]; enhancer 0.005%): stronger reduction

Reference: US20260273028A1, “PEROXIDASE COMPOSITIONS CONTAINING IMPROVED ENHANCING AGENTS” (FLEN HEALTH PHARMA NV, priority 2022, published 2026)
